Results: ChEMBL document CHEMBL1126693, “Long-chain-substituted uric acid and 5,6-diaminouracil derivatives as novel agents against free radical processes: synthesis and in vitro activity” (J Med Chem, 1993)
pIC50: −log10 of the molar value. Active and inactive are the calls of the source. The calls are words filed in the database; no cut-off is given here.

Assays:
[1] = Reducing activity to scavenge 10 uM 1, 1-diphenylpicrylhydrazyl (DPPH); type: functional
Bos taurus [2] = species: Bos taurus; assay: Tested for antioxidant activity using bovine heart mitochondria and iron(II) / dihydroxy fumaric acid (DHF) at 100 uM; type: functional
[3] = Percent inhibition at 100 uM against peroxidation of methyl linoleate / DMVN in TBA /methanol medium at 40 degree Centigrade
[4] = Partition coefficient (logP); type: physicochemical; conditions: octanol/water
[5] = Inhibition time for 20 uM during peroxidation of liposomal suspension of dilinoleoylphosphatidylcholine (DPLC) indicated by DMVN at 40 degree Centigrade
[6] = Inhibition time for 20 uM during peroxidation of methyl linoleate / DMVN in TBA /methanol medium at 40 degree Centigrade
Bos taurus [7] = species: Bos taurus; assay: Antioxidant activity in bovine heart mitochondria using iron(II) / dihydroxy fumaric acid (DHF); type: functional
Bos taurus [8] = species: Bos taurus; assay: Tested for antioxidant activity using bovine heart mitochondria and iron(II) / dihydroxy fumaric acid (DHF); type: functional
[9] = Inhibition against peroxidation of liposomal suspension of dilinoleoylphosphatidylcholine (DPLC) indicated by DMVN at 40 degree Centigrade
[10] = Percent inhibition at 100 uM against peroxidation of liposomal suspension of dilinoleoylphosphatidylcholine (DPLC) indicated by DMVN at 40 degree Centigrade
[11] = Reducing activity to scavenge 10 uM 1, 1-diphenylpicrylhydrazyl (DPPH); inactive; type: functional
[12] = Inhibition time for 20 uM during peroxidation of liposomal suspension of dilinoleoylphosphatidylcholine (DPLC) indicated by DMVN at 40 degree centigrade; inactive
[13] = Inhibition time for 20 uM during peroxidation of methyl linoleate / DMVN in TBA /methanol medium at 40 degree centigrade; inactive

| SMILES | T inh [6] | pIC50 (Bos taurus [7]) | RC10 [1] | inhibition (Bos taurus [2]) | T inh [5] | other results |
| --- | --- | --- | --- | --- | --- | --- |
| Cn1c(=O)[nH]c2[nH]c(=O)n(C)c2c1=O | – | – | 14 µM | 14% | – | – |
| Cn1c(=O)[nH]c2[nH]c(=O)[nH]c2c1=O | – | – | 4.5 µM | 10% | – | inhibition [3]: 13% |
| Cn1c(N)c(N)c(=O)[nH]c1=O | 156 s | 4.09 | 4.5 µM | – | 800 s | logP [4]: -1.4 |
| Cn1c(=O)[nH]c2c(=O)[nH]c(=O)[nH]c21 | – | – | 5 µM | 9% | – | – |
| Oc1nc(O)c2nc(O)[nH]c2n1 | – | – | 4.5 µM | 5% | – | inhibition [10]: 0.5%; inhibition [3]: 7% |
| Cn1c(=O)[nH]c(=O)c2c1[nH]c(=O)n2C | – | – | – | 5% | – | RC10 [11]: inactive |
| Nc1[nH]c(=O)[nH]c(=O)c1N | – | 4.00 | 7 µM | – | – | logP [4]: -1.92 |
| O=c1[nH]c(=O)c2[nH]c(=O)[nH]c2[nH]1 [URIC ACID] | – | – | – | – | – | logP [4]: -2.91 |
| Cc1c(C)c2c(c(C)c1O)CC[C@@](C)(CCC[C@H](C)CCC[C@H](C)CCCC(C)C)O2 | 190 s | – | 6 µM | 46% | – | T inh [12]: inactive |
| Cc1c(C)c2c(c(C)c1O)CCC(C)(C(=O)O)O2 (centres undefined) [TROLOX] | 195 s | 5.30 | 3.7 µM | – | 15000 s | – |
| CCCCCCCCCCCCn1c(=O)cc(N)[nH]c1=O | – | – | – | 1% | – | – |
| CCCCCCn1c(=O)[nH]c(=O)c2[nH]c(O)nc21 | – | – | 4.5 µM | 26% | – | logP [4]: -0.02 |
| Cn1c(=O)[nH]c(N)c(N)c1=O | – | 4.30 | 6 µM | – | – | – |
| Cn1c(=O)c2[nH]c(=O)[nH]c2n(C)c1=O | – | – | 3.5 µM | 36% | – | – |
| Cn1c(=O)[nH]c(=O)c2[nH]c(O)nc21 | – | – | 3.5 µM | 11% | – | inhibition [3]: 10% |
| CCCCCCCCCCCCn1c(=O)n(C)c(=O)c2c1n(C)c(=O)n2C | – | – | – | 5% | – | inhibition [10]: 0.5%; RC10 [11]: inactive; inhibition [3]: 0.7% |
| CCCCCCCCCCCCNc1cc(O)nc(O)n1 | – | – | – | 2% | – | T inh [13]: inactive; T inh [12]: inactive; RC10 [11]: inactive |
| Cn1c(O)nc2[nH]c(=O)[nH]c(=O)c21 | – | – | 20 µM | 20% | – | – |

More lines, main results first:

| T inh [6] | pIC50 (Bos taurus [7]) | SMILES | RC10 [1] | inhibition (Bos taurus [2]) | T inh [5] | other results |
| --- | --- | --- | --- | --- | --- | --- |
| 105 s | – | CCCCCCn1c(N)c(N)c(=O)[nH]c1=O | 6.5 µM | – | 2010 s | logP [4]: 1.01; pIC50 (Bos taurus [8]): 5.46 |
| – | 5.90 | CCCCCCCCCCCCn1c(=O)[nH]c2[nH]c(O)nc2c1=O | 5.2 µM | – | – | pIC50 [9]: 5.00; inhibition [3]: 25% |
| 126 s | 6.62 | CCCCCCCCCCCCn1c(N)c(N)c(=O)n(C)c1=O | 5 µM | – | 3150 s | – |
| – | 4.55 | CCCCCCCCn1c(=O)[nH]c(=O)c2[nH]c(O)nc21 | 6.5 µM | – | – | logP [4]: 1.1; pIC50 [9]: 4.43; inhibition [3]: 15% |
| 114 s | 6.21 | CCCCCCCCn1c(N)c(N)c(=O)[nH]c1=O | 6.5 µM | – | 3350 s | logP [4]: 2.05 |
| – | 6.07 | CCCCCCCCCCCCn1c(=O)n(C)c(=O)c2[nH]c(O)nc21 | 3 µM | – | – | pIC50 [9]: 4.74; inhibition [3]: 15% |
| 114 s | 4.66 | CCCCCCCCCCCCCCCCCCNc1[nH]c(=O)n(C)c(=O)c1N | 6.2 µM | – | 1750 s | – |
| – | 6.17 | CCCCCCCCCCCCNc1c(N)n(Cc2ccccc2)c(=O)[nH]c1=O | 6.5 µM | – | – | – |
| – | 6.12 | CCCCCCCCCCCCCCCCn1c(O)nc2c(=O)[nH]c(=O)[nH]c21 | 4.5 µM | – | – | pIC50 [9]: 5.10; inhibition [3]: 10% |
| 150 s | 6.05 | CCCCCCCCCCCCCCCCNc1nc(O)nc(O)c1N | 6.4 µM | – | 2020 s | – |
| 102 s | 6.57 | CCCCCCCCCCCCn1c(N)c(N)c(=O)[nH]c1=O | 7 µM | – | 3350 s | – |
| 84 s | 6.24 | CCCCCCCCCCCCNc1c(N)nc(O)nc1O | 4.5 µM | – | 6000 s | – |
| 105 s | 6.52 | CCCCCCCCCCCCNc1nc(O)nc(O)c1N | 6.4 µM | – | 3500 s | – |
| – | 5.80 | CCCCCCCCCCCCn1c(=O)[nH]c(=O)c2[nH]c(O)nc21 | 3.2 µM | – | – | logP [4]: 2.9 |
| – | 5.43 | CCCCCCCCCCn1c(=O)[nH]c(=O)c2[nH]c(O)nc21 | 3.5 µM | – | – | logP [4]: 2.04; pIC50 [9]: 4.66; inhibition [3]: 8% |
| 114 s | 6.55 | CCCCCCCCCCn1c(N)c(N)c(=O)[nH]c1=O | 5.6 µM | – | 3700 s | logP [4]: 3.04 |
| 144 s | 6.59 | CCCCCCCCCCCCn1c(=O)[nH]c(N)c(N)c1=O | 5.5 µM | – | 4200 s | – |
| – | 5.80 | CCCCCCCCCCCCn1c(O)nc2[nH]c(=O)[nH]c(=O)c21 | 27 µM | – | – | pIC50 [9]: 3.70; inhibition [3]: 10% |
| – | 6.00 | CCCCCCCCCCCCn1c(O)nc2c(=O)[nH]c(=O)[nH]c21 | 6.2 µM | – | – | pIC50 [9]: 4.96; inhibition [3]: 13% |
